One data set concerns CASPASE-1-GSDMD pathway. The data set can be described thus: Western blot of CASPASE-1-GSDMD pathway in primary hepatocytes. The format is cell-based, C57BL/6J mice. The method, then:
(§1) The method of isolating primary mouse hepatocytes from mice (C57BL/6J) was that shown in the previous report, and it is briefly described in Supporting Information.
(§2) The cells were harvested and used for protein extraction after incubation for 48 h. […]
(§3) Supplementary materials and methods […]
(§4) Preparation of primary hepatocytes
(§5) Primary mouse hepatocytes were isolated from male C57BL/6J mice as shown in previous literature. The liver was perfused through the portal vei n with Hanks solution twice (the first solution contains 1% penicillin/streptomycin, the second solution contains 0.05% collagenase IV) after mice were anesthetized with ether, and then they were killed by exsanguination. Hepatocytes were harvested by centrifugation three times (The first centrifugal condition is 50 0 rpm for 3 minutes, the second and third centrifugal condition is 1500 rpm for 5 min) after the perfused liver was passed through 100 filter sizes, and they were re‐suspended in Dulbeco Modified Eagle Medium (DMEM) (Hyclone, USA).
(§6) Cells were collected and seeded at a density of 2 × 10^5 cells ml‐1 in plates and cultured overnight in William E (Gibco, USA) medium (0.5 U/mL insulin, 1% penicillin/streptomycin, 10% FBS and 0.4 μg/mL dexamethasone) at 37 ℃ in a humidified Air /CO2 Incubator (5% V/V). […]
QPCR were performed as described previously. Briefly, Trizol reagent (Life Technologi es, Carlsbad, CA, USA) and SYBR Green PCR master mixture (Vazyme, Nanjing, China) were used for the experiment . The qPCR was performed in the CFX Connect real‐time system (Bio‐Rad Laboratories, Hercules, CA, USA), with 18S was used as […]
The methods for Western blot analysis were described in previous literature. Briefly, RIPA (POO13B, Beyotime Biotech), BCA kit (P0009, Beyotime Biotech), and 5% BSA (A8020, Solarbio) buffer were used for the experiment. […]
On the technique in general: In western blotting, separated proteins are transferred to a membrane and probed.

Data set [1] concerns liver. Put plainly: Diosmin co-treatment in colchicine-induced liver injury in mice. Type of data set: in vivo, C57BL/6J mice. Here is the method: To investigate the role of CYP1A1 in colchicine-induced liver injury in mice, a CYP1A1 agonist (diosmin) was used. […] All mice in the control group received 0.5% CMC-Na prior to the administration of water, and the mice were sacrificed for sample collection 24 h after the final administration.
Supplementary Materials: Inhibition of CYP1A1 Alleviates
(§7) Ruoyue Huang, Jingyi Duan, We n Huang, Ya n Cheng, Bei wei Zhu and Fei Li
(§8) Supplementary materials and methods
(§9) Reference numbers refer to the main text list
(§10) UHPLC‐Q exactive plus MS Analysis
(§11) All samples were analyzed on a liquid chromatography system including a Vanquish autosampler, Vanquish detector, Vanquish pump (Thremo Fisher Scientific, Santa Clara, CA). Samples were separated on an ACQUITY UPLC HSS T3 column (2.1×100 mm, […], Waters, USA). The injection volume: 5 μL, and the flow rate was 0.3 mL/min.
Phase A was H2O containing 0.01% formic acid, and phase B was acetonitrile containing 0.01% formic acid. The elution gradient was as follows: 0‐12 mi n, 2‐98% B; 12‐14 min, 2% A; 14‐16 min, 98% A. Other parameters are as follows: column temperature 45 ℃ , flow rate of collision gas and dry gas 9 L/min. Capillary voltage 3.5 kV, temperature 350 ℃ , atomizer pressure 35 psi. […]
(§12) Quantitative real‐time PCR analysis […]
(§13) Immunohistochemistry was determined by used the previously described method. […]

Another data set relates to primary hepatocytes. The data set can be described thus: MTT cell viability in primary hepatocytes co-treated with colchicine and diosmin. The note with it: diosmin pre-treatment 2 h, then colchicine 100 µM, 48 h. Type of data set: cell-based, C57BL/6J mice.
Source text: The method of isolating primary mouse hepatocytes from mice (C57BL/6J) was that shown in the previous report, and it is briefly described in Supporting Information. […]
as §3, §4, §5, §6
QPCR were performed as described previously. Briefly, Trizol reagent (Life Technologi es, Carlsbad, CA, USA) and SYBR Green PCR master mixture (Vazyme, Nanjing, China) were used for the experiment . […]

The subject of data set [2] is liver. The data set can be described thus: Colchicine-induced liver injury in mice.
Description: The animal studies were approved by the Animal Care and Use Committee of West China Hospital, Sichuan University (20230412004, the ethics approval date was 12 April 2023). Chengdu Yaokang Biotechnology Co., Ltd. (Chengdu, China), provided the male C57BL/6J mice (18–22 g, 6 to 8 weeks old, No. SCXK (Sichuan) 2020-034). All animals were acclimated to the experimental environment for 1 week, and finally, the animals were anesthetized with CO2 and killed [38].
ALP, ALT and AST were measured in plasma, and MDA (Nanjing Jiancheng Bioengineering Institute, Nanjing, China) was measured in the liver. Histological characteristics were observed by preparing paraffin sections of liver tissue and performing hematoxylin and eosin (H&E) staining.
Data set [3] has as its system CYP1A1. The data set can be described thus: CYP1A1 gene and protein expression in primary hepatocytes. Type of data set: cell-based, C57BL/6J mice. As to conditions: colchicine 4–400 µM, 48 h. The method, then:
as §1, §2, §3, §4, §5
Cells were collected and seeded at a density of 2 × 10^5 cells ml‐1 in plates and cultured overnight in William E (Gibco, USA) medium (0.5 U/mL insulin, 1% penicillin/streptomycin, 10% FBS and 0.4 μg/mL dexamethasone) at 37 ℃ in a humidified Air /CO2 Incubator (5% V/V).
Quantitative real‐time PCR analysis
QPCR were performed as described previously. […]

Data set [4] concerns CYP1A1. The data set can be described thus: CYP1A1 gene and protein expression in the liver of colchicine-treated mice. Type of data set: in vivo, C57BL/6J mice. As to conditions: colchicine 3, 5 mg/kg by gavage for 3 days; dose-dependent. The method, then: as §7, §8, §9, §10, §11
Phase A was H2O containing 0.01% formic acid, and phase B was acetonitrile containing 0.01% formic acid. The elution gradient was as follows: 0‐12 mi n, 2‐98% B; 12‐14 min, 2% A; 14‐16 min, 98% A. Other parameters are as follows: column temperature 45 ℃ , flow rate of collision gas and dry gas 9 L/min. Capillary voltage 3.5 kV, temperature 350 ℃ , atomizer pressure 35 psi. Vanquish UHPLC‐Q Exactive plus MS (Thermo Fisher, USA) was collected in both positive modes, operating in full scan mode with 60‐900 m/z.
as §4
Primary mouse hepatocytes were isolated from male C57BL/6J mice as shown in previous literature. […]
as §12, §13

Data set [5] addresses T1, CYP1A1 (Homo sapiens, UniProt P04798).
T1 construct: purchased Research Institute for Liver Diseases Co., Ltd. (Shanghai, China)
T1 sequence (P04798 1-512): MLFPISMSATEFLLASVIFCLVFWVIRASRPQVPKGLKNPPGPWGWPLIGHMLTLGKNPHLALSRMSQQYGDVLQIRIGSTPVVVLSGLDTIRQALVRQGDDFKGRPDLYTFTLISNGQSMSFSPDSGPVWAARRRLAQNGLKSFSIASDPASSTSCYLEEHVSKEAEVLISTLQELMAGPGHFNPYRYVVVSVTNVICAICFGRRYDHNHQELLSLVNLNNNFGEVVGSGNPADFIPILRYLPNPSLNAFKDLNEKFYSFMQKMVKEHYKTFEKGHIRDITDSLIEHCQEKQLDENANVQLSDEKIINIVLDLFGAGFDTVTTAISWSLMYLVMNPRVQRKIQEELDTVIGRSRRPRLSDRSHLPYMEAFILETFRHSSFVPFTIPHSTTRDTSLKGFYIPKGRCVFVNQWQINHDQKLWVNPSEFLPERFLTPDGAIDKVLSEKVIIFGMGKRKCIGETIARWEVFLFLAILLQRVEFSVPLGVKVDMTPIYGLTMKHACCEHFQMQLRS
Put plainly: Inhibition of CYP1A1 demethylation metabolism of colchicine by co-incubation with inhibitor. The note with it: colchicine 25 µM co-cultured with α-naphthoflavone 10 µM; n = 3. The format is biochemical. Here is the method:
The control group was a system without NADPH or colchicine. […] Pre-cooled acetonitrile was used to terminate the reaction, and then centrifugation (4 °C, 12,000 rpm, 20 min) was performed to obtain the sample.
All samples were analyzed as shown in [17] and are briefly described in Supporting Information.

Data set [6] relates to liver. Put plainly: α-Naphthoflavone intervention in colchicine-induced liver injury in mice. Type of data set: in vivo, C57BL/6J mice.
The mark [7] stands for this setting: colchicine 3, 5 mg/kg by gavage for 3 consecutive days.

The values that follow come from paper PMC10818746, “Inhibition of CYP1A1 Alleviates Colchicine-Induced Hepatotoxicity” (Toxins, 2024).

Consider `COc1ccc(-c2cc(=O)c3c(O)cc(O[C@@H]4O[C@H](CO[C@@H]5O[C@@H](C)[C@H](O)[C@@H](O)[C@H]5O)[C@@H](O)[C@H](O)[C@H]4O)cc3o2)cc1O` [diosmin], for which, in the data set on CASPASE-1-GSDMD pathway (diosmin in a dose-gradient manner + colchicine 100 µM, compared to the colchicine-only group), the “CASPASE-1-GSDMD pathway in primary hepatocytes” value is given as “significantly up-regulated”. In the data set on liver [1] (diosmin 100 mg/kg + colchicine 5 mg/kg, versus colchicine group), the “colchicine-induced CASPASE-1-GSDMD pathway activation in the liver (cl-CASPASE, cl-GSDMD)” value is given as “enhanced”. Moreover, in the data set with liver [1] (diosmin 100 mg/kg by gavage 2 h prior to colchicine 5 mg/kg), the “colchicine-induced hepatotoxicity (MDA, AST, ALT, ALP)” value is “effectively aggravated”. Also, the “primary hepatocyte death caused by colchicine (MTT)” value with primary hepatocytes is “exacerbated”.
Consider `COc1cc2c(c(OC)c1OC)-c1ccc(OC)c(=O)cc1[C@@H](NC(C)=O)CC2` [colchicine, Colchicine], for which the “CASPASE-1-GSDMD pathway in the liver” value with liver [2] (colchicine 5 mg/kg, versus control group) is “activated”. Besides, in the data set with liver [2] (setting [7]), the “ALP enzyme level in plasma” value is “significantly increased”; the “ALT enzyme level in plasma” value was “significantly increased”; the “AST enzyme level in plasma” value is recorded as “significantly increased”; the “CASPASE-1 in the liver (gene expression, immunohistochemical staining)” value was “activated”. Moreover, in the data set on liver [2] (setting [7]), the “body weight of mice” value is on record as “decreased significantly”; the “gross anatomy of the liver” value is “enlarged liver and shrunken gallbladder”; the “liver histology, H&E staining” value is given as “inflamed liver”. For the same compound, the “CASPASE-1-GSDMD pathway in primary hepatocytes” value with CASPASE-1-GSDMD pathway (colchicine group versus control) is listed as “significantly up-regulated”. In addition, the “mRNA and protein levels of CYP1A1 in primary hepatocytes” value with CYP1A1 [3] is given as “dose-dependently increased”. In addition, the “mRNA and protein levels of the CYP1A1 enzyme in the liver” value in the data set on CYP1A1 [4] is reported as “increased”.
In the case of `O=c1cc(-c2ccccc2)oc2c1ccc1ccccc12` [α-naphthoflavone], the “CASPASE-1-GSDMD pathway protein levels in primary hepatocytes” value in the data set on CASPASE-1-GSDMD pathway (colchicine + different concentrations of α-naphthoflavone, dose-gradient manner, versus colchicine group) is on record as “restored the abnormal protein levels”. Also, the “demethylation metabolism of colchicine by CYP1A1” value on CYP1A1 [5] is on record as “significantly inhibited”. Moreover, the “colchicine-induced liver injury (AST, ALT enzyme activity and MDA oxidative stress)” value with liver [6] (α-naphthoflavone 30 mg/kg i.p. 2 h prior to colchicine 5 mg/kg, 3 days) is on record as “significantly alleviated”. For the same compound, the “CASPASE-1-GSDMD pathway proteins (cl-CASPASE, cl-GSDMD) in the liver” value in the data set with liver [6] (α-naphthoflavone 30 mg/kg i.p. + colchicine 5 mg/kg, versus colchicine group) is listed as “significantly down-regulated”.
